Values joined by “and” are separate entries in the source; they are usually repeats but may differ in a detail not shown here. Identical values can stand only once.
Experiments:
hBD2 [1] = assay: Qualitative RT-PCR of hBD2 expression, 1st step of the screening method; assay type: cell-based; conditions: normal human keratinocytes, 16 h
Experimental: A 1% concentration of the actives is tested on normal human keratinocytes, as a monolayer, on 96-well culture plates, in a specific medium enriched with calcium and free of serum (final concentration 1.7 mM).
(§1) At 80% confluence, cells are contacted with the actives (1 active per well) for 16 h. An untreated control and 2 positive controls (TNFα 100 ng/mL for hBD2 and IFNγ 100 ng/mL for hBD3) are set up in parallel on the same culture plate.
(§2) After 16 h, the supernatants are collected and cells are dry frozen at −80° C. after rinsing in PBS.
(§3) Total RNA are extracted using a 96-well extraction kit on silica columns and assayed using a 96-well spectrophotometer at 260 and 280 nm. RNA are diluted to 5 ng/mL.
(§4) Qualitative one-step RT-PCR is performed on 50 ng of initial RNA in 96 wells, on actin, hBD2 and hBD3. The primers are used at a concentration of 0.5 μM and arc taken from the literature:—hBD2: sense: 5′-[…]-3′; hBD2 antisense 5′-[…]-3′ (Harder J. et al., A peptide antibiotic from human skin. Nature 1997; 387 : 861); hBD3 sense: 5′-[…]-3′; hBD3 antisense: 5′-[…]-3′; actin sense: 5′-[…]-3′; actin antisense: 5′-[…]-3′ (Harder J. et al., Isolation and characterization of human β-defensin-3, a novel human inducible peptide antibiotic. J Biol Chem 2001, 276 : 5707-5713).
(§5) Samples are placed in a thermocycler and follow a common amplification program: 50° C., 30 min; 94° C., 2 min, (94° C., 30 s; 60° C., 30 s; 68° C., 30 s), 32 cycles for the defensins and 30 cycles for actin; 72° C., 10 min; 14° C., infinite.
(§6) After amplification, the products are mixed at a rate of 3 μL of actin amplification products+6 μL of hBD2 amplification products+6 μL of hBD3 amplification products. 5 μL of a mixture of charge buffer and water (⅔) are added and the final 20 μL are deposited on 2% premoulded agarose gel. The samples migrate in 30 minutes and the bands are visualised under UV in a dark room then digitally photographed.
(§7) Photos of the gels are analysed by image processing software which quantifies the intensity of the bands. As the basal level of defensin expression (untreated control) is not detectable, the intensity ratios of the hBD2/actin and hBD3/actin bands can be compared, for example with those obtained for the positive control (treated with TNFα for hBD2 and IFNγ for hBD3) and indicate any stimulation of the expression of the β-defensin in question
(§8) Since the basal level of defensin expression is generally not detectable, stimulation of hBD2 and hBD3 is expressed as a percentage of the positive controls (TNFα for hBD2 and IFNγ for hBD3). IL8 and MIP3α levels are given as pg/mL/RNA concentration (in ng/μL).

hBD3 [2] = assay: Qualitative RT-PCR of hBD3 expression, 1st step of the screening method; assay type: cell-based; conditions: normal human keratinocytes, 16 h
Experimental: as §1, §2, §3, §4, §5, §6, §7, §8

IL8 [3] = assay: ELISA of IL8 secreted into the culture medium, 1st step; assay type: cell-based, human; conditions: keratinocyte supernatant, 16 h
Experimental: (§9) At the end of this first step, the actives having exerted an effect on β-defensin expression are selected and the supernatants corresponding to these actives are then tested using an ELISA kit in order to determine the levels of MIP3α, IL1 and IL8 secreted into the culture medium under the effect of the actives. The levels are then referred to the RNA concentration assayed in each well in order to compare results with each other.
as §8

hBD2 [4] = assay: Quantitative RT-PCR of hBD2 expression, 2nd step (dose-effect); assay type: cell-based, human; conditions: conc. 100 ng/mL; 16 h; untreated control = 100%
Experimental: (§10) The actives are then tested on 5 concentrations (from 0.001% to max viability) in quadruplicate on normal human keratinocytes as a monolayer on 96-well culture plates, in a specific medium enriched with calcium and free of serum (CaCl2 1.7 mM) (same conditions as in example 1).
as §2
(§11) Total RNA are extracted using a 96-well extraction kit on silica columns and assayed using a 96-well spectrophotometer at 260 and 280 nm. RNA are diluted to 5 ng/μL.
(§12) Quantitative RT-PCR in 96 wells on actin, hBD2 and hBD3 is initially carried out on 50 ng of RNA, using a one-step kit containing Sybrgreen, in a fluorescence thermocycler with the same primers as previously (0.5 μM). The amplification program is as follows: 50° C., 30 min; 94° C., 15 min; (94° C., 15 s; 60° C., 30 s; 72° C., 30 s)×50 cycles; 90° C., 1 min; 30° C., 1 min; 50° C. to 95° C. (10 s every ° C.); 14° C., infinite.
(§13) A study of the fusion graphs makes it possible to verify the specificity of amplified products. The fluorescence graph as a function of the number of cycles gives the C(T) value corresponding to the number of cycles needed to obtain initiation of the fluorescence signal. The more an mRNA is expressed, the lower the C(T) value. Calculation of Sgene=(½)^C(T) for each RNA takes into consideration the exponential increase in the number of copies during amplification. The Sgene hBD2/Sgene actin and Sgene hBD3/Sgene actin ratios can be compared with those of the untreated control to give the percentage stimulation produced.
(§14) Quantitative RT-PCR makes it possible to obtain a basal value for the defensin expression for untreated controls. The results are therefore expressed as a percentage of the control. IL8, IL1 and MIP3 cytokine levels are given as pg/mL/RNA concentration (in ng/μL).
(§15) In the same way as in example 2, retinoic acid and retinol were tested for their capacity to stimulate hBD2 and/or hBD3.

hBD3 [5] = assay: Quantitative RT-PCR of hBD3 expression, 2nd step (dose-effect); assay type: cell-based, human; conditions: conc. 100 ng/mL; 16 h; untreated control = 100%
Experimental: as §10, §2, §11, §12, §13, §14, §15

MIP3α [6] = assay: ELISA of MIP3α in supernatants, 2nd step; assay type: cell-based, human; conditions: conc. 100 ng/mL; supernatant, 16 h
Experimental: (§16) The supernatants of the actives, whose capacity to induce defensins has been confirmed, are tested using an ELISA kit in order to assay MIP3α, IL8 and IL1α levels. These assays are performed on the same supernatant (200 μL) by carrying out a series dilution (by 1.5 to assay MIP3α and IL8, then by 2 to assay IL1). The levels are then referred to the RNA concentration assayed in each well in order to compare results with each other.
as §14

IL8 [7] = assay: ELISA of IL8 in supernatants, 2nd step; assay type: cell-based, human; conditions: conc. 100 ng/mL; supernatant, 16 h
Experimental: as §16, §14

IL1α = assay: ELISA of IL1α in supernatants, 2nd step; assay type: cell-based, human; conditions: conc. 100 ng/mL; supernatant, 16 h
Experimental: as §16, §14

MIP3α [8] = assay: ELISA of MIP3α secreted into the culture medium, 1st step; assay type: cell-based, human; conditions: 100 μg/mL; keratinocyte supernatant, 16 h
Experimental: as §9, §8

| Molecule | HBD2 expression, percentage of the positive control (TNFα) (hBD2 [1]; 100 ng/mL (positive control)) | HBD3 expression, percentage of the positive control (IFNγ) (hBD3 [2]; 100 ng/mL (positive control)) | IL8 level (IL8 [3]; 100 ng/mL (positive control)) | hBD2 expression, percentage of the control (hBD2 [4]) | hBD3 expression, percentage of the control (hBD3 [5]) | MIP3α level (MIP3α [6]) | IL8 level (IL8 [7]) | IL1α level (IL1α) | HBD2 expression, percentage of the positive control (TNFα) (hBD2 [1]; 100 μg/mL) | HBD3 expression, percentage of the positive control (IFNγ) (hBD3 [2]; 100 μg/mL) | MIP3α level (MIP3α [8]) | IL8 level (IL8 [3]; 100 μg/mL) |
| --- | --- | --- | --- | --- | --- | --- | --- | --- | --- | --- | --- | --- |
| TNFα | 100% | 100% | 186 pg/mL/RNA concentration (in ng/μL) and 97 pg/mL/RNA concentration (in ng/μL) | 1755% | 774% | 23.6 pg/mL/RNA concentration (in ng/μL) | 175 pg/mL/RNA concentration (in ng/μL) | 21.8 pg/mL/RNA concentration (in ng/μL) | – | – | – | – |
| CC[C@H](C)[C@H](N)C(=O)O (racemic) [D,L-Isoleucine] | – | – | – | – | – | – | – | – | 0% | 0% | 5.6 pg/mL/RNA concentration (in ng/μL) | 30.6 pg/mL/RNA concentration (in ng/μL) |
| CC[C@H](C)[C@H](N)C(=O)OC [Isoleucine Methyl ester] | – | – | – | – | – | – | – | – | 16% | 6% | 3.8 pg/mL/RNA concentration (in ng/μL) | 7.7 pg/mL/RNA concentration (in ng/μL) |

From patent US20160361250A1, “ACTIVE INGREDIENTS STIMULATING TYPE 2 AND/OR TYPE 3 HUMAN BETA-DEFENSINS AND COSMETIC OR PHARMACEUTICAL COMPOSITIONS CONTAINING SUCH ACTIVE INGREDIENTS” (BASF Beauty Care Solutions France S.A.S., priority 2002, published 2016)
